± gives the standard deviation of the averaged measurements.
Key:
Assay in all cases: level (log10 ratio to DMSO vehicle control); higher = higher biomarker level / cell amount than vehicle control
[1] = compound: FC(F)(F)C(F)(F)C(F)(F)CC1CO1 [1H,1H-Heptafluorobutyl epoxide]; details: in DMSO
Description: (§1)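 BioMAP Diversity Plus panel of 12 human primary cell co-culture systems (3C, 4H, LPS, SAg, BT, BF4T, BE3C, CASM3C, HDF3CGF, KF3CT, MyoF, Mphg). Compounds were added 1 h before stimulation and left for 24 h (MyoF 48 h; BT 72 h for soluble read-outs or 6 d for IgG). Biomarkers were read by ELISA, cytotoxicity by SRB, PBMC viability and proliferation by Alamar Blue. Each well value was divided by the mean of 8 DMSO control wells on the same plate and log10 transformed; duplicate blinded samples were tested at 4 concentrations.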

[2] = compound: O=C(O)C(F)(F)C(F)(F)C(F)(F)C(F)(F)C(F)(F)C(F)(F)C(F)(F)C(F)(F)C(F)(F)C(F)F [11-H-Perfluoroundecanoic acid]; details: in DMSO
Description: as §1

[3] = compound: C=CC(=O)OCC(F)(F)C(F)(F)C(F)(F)COC(=O)C=C [1H,1H,5H,5H-Perfluoro-1,5-pentanediol diacrylate]; details: 6700 nM; in DMSO
Description: as §1

[4] = compound: NS(=O)(=O)C(F)(F)C(F)(F)C(F)(F)C(F)(F)C(F)(F)C(F)(F)F [Perfluorohexanesulfonamide]; details: in DMSO
Description: as §1

[5] = compound: O=S(=O)(Cl)C(F)(F)C(F)(F)C(F)(F)C(F)(F)C(F)(F)C(F)(F)C(F)(F)C(F)(F)F [Perfluoro-1-octanesulfonyl chloride]; details: in DMSO
Description: as §1

[6] = compound: C=C(C)C(=O)OCCC(F)(F)C(F)(F)C(F)(F)C(F)(F)C(F)(F)C(F)(F)F [6:2 Fluorotelomer methacrylate]; details: in DMSO
Description: as §1

Test System	level (log10) ([1]; 6700 nM)	level (log10) ([1]; 20000 nM)	level (log10) ([1]; 60000 nM)	level (log10) ([2]; 6700 nM)	level (log10) ([2]; 20000 nM)	level (log10) [3]	level (log10) ([4]; 6700 nM)	level (log10) ([4]; 20000 nM)	level (log10) ([4]; 60000 nM)	level (log10) ([5]; 6700 nM)	level (log10) ([5]; 20000 nM)	level (log10) ([5]; 60000 nM)	level (log10) ([6]; 6700 nM)	level (log10) ([6]; 20000 nM)	level (log10) ([6]; 60000 nM)
BF4T:uPA	-0.0065 ± 0.013	0.0025 ± 0.022	-0.028 ± 0.034	-0.0095 ± 0.036	-0.051 ± 0.038	-0.019 ± 0.013	-0.003 ± 0.0042	0.0005 ± 0.0035	-0.01 ± 0.011	-0.028 ± 0.03	-0.025 ± 0.025	-0.113 ± 0.046	-0.006 ± 0.0057	0.0005 ± 0.026	0.006 ± 0.011
BT:B cell Proliferation	-0.021 ± 0.038	0.008 ± 0.033	-0.008 ± 0.034	0.023 ± 0.016	0.035 ± 0.031	-0.24 ± 0.052	0.0025 ± 0.063	0.034 ± 0.047	0.086 ± 0.0042	0.01 ± 0.044	0.0345 ± 0.013	0.101 ± 0.011	-0.0325 ± 0.043	-0.0255 ± 0.021	-0.008
BT:Secreted IgG	0.017 ± 0.038	-0.0175 ± 0.043	0.008 ± 0.033	0.007 ± 0.021	0.0175 ± 0.0092	-0.565 ± 0.17	-0.024 ± 0.016	-0.0005 ± 0.046	-0.133 ± 0.037	-0.033 ± 0.0042	-0.0265 ± 0.039	-0.042 ± 0.034	0.0165 ± 0.00071	-0.0065 ± 0.005	-0.0095 ± 0.023
BT:sIL-6	0.002 ± 0.0014	-0.023 ± 0.042	-0.0725 ± 0.071	-0.033 ± 0.034	-0.0465 ± 0.046	-0.692 ± 0.031	0.013 ± 0.09	-0.0025 ± 0.061	-0.0455 ± 0.037	0.0135 ± 0.016	0.043 ± 0.025	0.0195 ± 0.033	0.017 ± 0.014	0.059 ± 0.017	-0.004 ± 0.089
BT:sIL-17A	-0.0185 ± 0.022	0.0025 ± 0.033	-0.033 ± 0.067	0.003 ± 0.0057	-0.0485 ± 0.061	-1.14 ± 0.22	-0.155 ± 0.069	-0.072 ± 0.069	-0.026 ± 0.051	-0.0095 ± 0.08	0.0335 ± 0.071	-0.084 ± 0.15	-0.058 ± 0.16	0.028 ± 0.099	-0.078 ± 0.04
BT:sIL-17F	0.0235 ± 0.015	-0.0505 ± 0.063	0.0025 ± 0.1	0.0115 ± 0.0092	-0.0225 ± 0.049	-1 ± 0.04	-0.0125 ± 0.11	0.054 ± 0.041	-0.13 ± 0.027	0.062 ± 0.054	0.0385 ± 0.0035	0.0705 ± 0.012	-0.0095 ± 0.032	-0.023 ± 0.02	-0.046 ± 0.014
BT:sTNF-alpha	-0.042 ± 0.12	-0.038 ± 0.02	-0.123 ± 0.19	0.016 ± 0.059	-0.051 ± 0.024	-0.94 ± 0.21	-0.013 ± 0.12	-0.027 ± 0.065	0.068 ± 0.09	0.067 ± 0.042	0.126 ± 0.016	0.102 ± 0.16	-0.0045 ± 0.0035	0.0045 ± 0.012	-0.068 ± 0.058
LPS:M-CSF	-0.019 ± 0.02	0.0005 ± 0.036	0.0255 ± 0.053	-0.0035 ± 0.018	0.012 ± 0.038	-0.0655 ± 0.026	-0.022 ± 0.016	-0.0155 ± 0.0021	-0.081 ± 0.0057	-0.079 ± 0.045	-0.0105 ± 0.025	0.116 ± 0.035	0.0215 ± 0.025	0.0305 ± 0.0064	0.0275 ± 0.028
LPS:SRB	0.0085 ± 0.013	0.002	-0.005 ± 0.0071	0.0045 ± 0.013	0.0055 ± 0.005	-0.02 ± 0.0042	-0.012 ± 0.0071	-0.017 ± 0.0057	-0.0975 ± 0.029	0.0035 ± 0.0035	0.005 ± 0.0028	-0.043 ± 0.023	-0.003 ± 0.0042	-0.0035 ± 0.0064	-0.0025 ± 0.00071
LPS:sPGE2	0.007 ± 0.03	0.005 ± 0.05	0.0105 ± 0.00071	0.018 ± 0.023	-0.006 ± 0.042	-0.105 ± 0.028	0.088 ± 0.014	0.13 ± 0.032	0.207 ± 0.046	0.0585 ± 0.0078	-0.02 ± 0.016	-0.272 ± 0.03	0.0125 ± 0.0078	0.027 ± 0.0099	0.0025 ± 0.046
SAg:CCL2/MCP-1	0.0055 ± 0.0035	-0.009 ± 0.0071	-0.025 ± 0.017	-0.0105 ± 0.022	-0.0125 ± 0.0035	-0.13 ± 0.04	-0.0065 ± 0.00071	-0.0185 ± 0.0035	-0.085 ± 0.027	-0.028 ± 0.017	0.0005 ± 0.025	0.041 ± 0.0028	-0.001 ± 0.058	0 ± 0.025	0.0135 ± 0.005
SAg:CD38	0.0025 ± 0.012	-0.025 ± 0.0085	-0.0125 ± 0.03	-0.0045 ± 0.023	0.004 ± 0.04	-0.0655 ± 0.046	0.0495 ± 0.056	0.0225 ± 0.061	-0.141 ± 0.12	-0.0105 ± 0.00071	-0.018 ± 0.0014	-0.058 ± 0.027	-0.0075 ± 0.011	0.015 ± 0.038	0.0005 ± 0.029
SAg:CD40	-0.01 ± 0.034	-0.0015 ± 0.0064	-0.0235 ± 0.013	-0.024	-0.0355 ± 0.012	-0.14 ± 0.033	-0.025 ± 0.017	-0.064 ± 0.0057	-0.172 ± 0.0064	0.002 ± 0.0071	-0.015 ± 0.0028	-0.078 ± 0.034	-0.024 ± 0.04	-0.0255 ± 0.028	-0.0315 ± 0.012
SAg:CD62E/E-Selectin	-0.0065 ± 0.043	-0.013 ± 0.0057	-0.015 ± 0.016	0.007 ± 0.021	0.0035 ± 0.005	-0.469 ± 0.1	-0.0155 ± 0.012	-0.05 ± 0.035	-0.178 ± 0.034	-0.0055 ± 0.013	0.0155 ± 0.019	0.127 ± 0.016	-0.011 ± 0.038	0.0105 ± 0.015	0.0105 ± 0.0064
SAg:CD69	0.0115 ± 0.00071	0.009 ± 0.0014	0 ± 0.031	-0.01 ± 0.028	-0.0235 ± 0.047	-0.181 ± 0.073	-0.028 ± 0.017	-0.0725 ± 0.019	-0.217 ± 0.02	-0.011 ± 0.0099	-0.049 ± 0.04	-0.0795 ± 0.049	-0.001 ± 0.0014	-0.0035 ± 0.00071	-0.013 ± 0.024
SAg:CXCL8/IL-8	-0.012 ± 0.05	-0.011 ± 0.021	0.005 ± 0.027	-0.0115 ± 0.019	-0.0115 ± 0.05	-0.259 ± 0.13	-0.0225 ± 0.021	-0.088 ± 0.0099	-0.237 ± 0.088	-0.011 ± 0.011	0.012 ± 0.0099	0.093 ± 0.016	0.0095 ± 0.005	-0.0165 ± 0.0021	0.044 ± 0.011
SAg:PBMC Cytotoxicity	-0.0095 ± 0.0092	-0.005 ± 0.013	0.0345 ± 0.011	0.002 ± 0.045	0.0035 ± 0.021	-0.111 ± 0.0035	0 ± 0.05	0.0415 ± 0.021	0.121 ± 0.023	0.01 ± 0.025	0.0045 ± 0.016	0.067 ± 0.0085	-0.0305 ± 0.057	0.0085 ± 0.0021	0.015 ± 0.0099
SAg:SRB	0.0065 ± 0.026	-0.0065 ± 0.0092	-0.0115 ± 0.011	0.0155 ± 0.005	0.0035 ± 0.011	-0.0015 ± 0.012	-0.003 ± 0.0028	-0.001 ± 0.0028	-0.094 ± 0.021	-0.001 ± 0.0042	-0.0045 ± 0.011	-0.107 ± 0.033	0 ± 0.0057	-0.003 ± 0.0042	-0.005 ± 0.0071

— the supplement of paper PMC10331698
